Source: ChEMBL document CHEMBL1134156, “Design, synthesis and preliminary evaluation of novel 3'-substituted carboxycyclopropylglycines as antagonists at group 2 metabotropic glutamate receptors” (Bioorg Med Chem Lett, 2001)
Values joined by “and” are separate entries in the source; they are usually repeats but may differ in a detail not shown here. Equal entries are not always repeated.

Assays:
[1] = Effect of compound on GluR mediated phosphoinositol metabolisim at conc of 50 uM of mGluR5a; assay type: functional
[2] = molecular target: Metabotropic glutamate receptor 2 (Homo sapiens, UniProt Q14416); experiment: Antagonistic activity against stimulation of GTP (gamma) 35 S binding by glutamate in membranes from CHO cells expressing human Metabotropic glutamate receptor 2; assay type: cell membranes
[3] = Effect of compound on GluR mediated phosphoinositol metabolisim at conc of 10 uM of mGluR5a; assay type: functional
[4] = Effect of compound on GluR mediated phosphoinositol metabolisim at conc of 50 uM of GluR1b; assay type: functional
[5] = Hill coefficient was determined
[6] = molecular target: Metabotropic glutamate receptor 3 (Rattus norvegicus, UniProt P31422); experiment: Compound was evaluated for the inhibition of binding of [3H]glutamate against rat recombinant Metabotropic glutamate receptor 3 expressed in HEK293 cells; assay type: cell-based
[7] = Effect of compound on GluR mediated phosphoinositol metabolisim at conc of 10 uM of GluR1b; assay type: functional

Chain of Metabotropic glutamate receptor 2 (Q14416 whole entry): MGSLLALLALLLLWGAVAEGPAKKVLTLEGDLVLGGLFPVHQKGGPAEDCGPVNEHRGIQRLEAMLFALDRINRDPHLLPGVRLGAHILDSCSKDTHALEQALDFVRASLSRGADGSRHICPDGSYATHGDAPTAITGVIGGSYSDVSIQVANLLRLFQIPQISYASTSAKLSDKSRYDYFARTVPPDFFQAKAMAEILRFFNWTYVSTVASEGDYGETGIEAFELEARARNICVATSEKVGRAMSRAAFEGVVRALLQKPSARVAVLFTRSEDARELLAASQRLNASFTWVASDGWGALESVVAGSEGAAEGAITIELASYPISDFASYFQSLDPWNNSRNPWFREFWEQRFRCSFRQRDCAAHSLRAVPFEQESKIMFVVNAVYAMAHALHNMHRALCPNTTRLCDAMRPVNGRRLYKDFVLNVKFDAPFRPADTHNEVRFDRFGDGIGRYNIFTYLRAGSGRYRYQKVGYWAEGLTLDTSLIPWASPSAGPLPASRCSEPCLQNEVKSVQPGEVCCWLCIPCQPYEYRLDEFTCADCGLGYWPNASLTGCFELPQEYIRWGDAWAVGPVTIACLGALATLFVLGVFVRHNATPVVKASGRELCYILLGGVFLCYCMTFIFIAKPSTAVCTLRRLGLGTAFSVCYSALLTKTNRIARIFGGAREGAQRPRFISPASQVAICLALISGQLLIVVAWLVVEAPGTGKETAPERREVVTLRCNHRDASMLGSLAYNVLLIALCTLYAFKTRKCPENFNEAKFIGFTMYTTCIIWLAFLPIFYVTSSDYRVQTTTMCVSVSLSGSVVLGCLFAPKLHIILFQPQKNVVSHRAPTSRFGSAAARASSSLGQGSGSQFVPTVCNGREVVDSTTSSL
Chain of Metabotropic glutamate receptor 3 (P31422 whole entry): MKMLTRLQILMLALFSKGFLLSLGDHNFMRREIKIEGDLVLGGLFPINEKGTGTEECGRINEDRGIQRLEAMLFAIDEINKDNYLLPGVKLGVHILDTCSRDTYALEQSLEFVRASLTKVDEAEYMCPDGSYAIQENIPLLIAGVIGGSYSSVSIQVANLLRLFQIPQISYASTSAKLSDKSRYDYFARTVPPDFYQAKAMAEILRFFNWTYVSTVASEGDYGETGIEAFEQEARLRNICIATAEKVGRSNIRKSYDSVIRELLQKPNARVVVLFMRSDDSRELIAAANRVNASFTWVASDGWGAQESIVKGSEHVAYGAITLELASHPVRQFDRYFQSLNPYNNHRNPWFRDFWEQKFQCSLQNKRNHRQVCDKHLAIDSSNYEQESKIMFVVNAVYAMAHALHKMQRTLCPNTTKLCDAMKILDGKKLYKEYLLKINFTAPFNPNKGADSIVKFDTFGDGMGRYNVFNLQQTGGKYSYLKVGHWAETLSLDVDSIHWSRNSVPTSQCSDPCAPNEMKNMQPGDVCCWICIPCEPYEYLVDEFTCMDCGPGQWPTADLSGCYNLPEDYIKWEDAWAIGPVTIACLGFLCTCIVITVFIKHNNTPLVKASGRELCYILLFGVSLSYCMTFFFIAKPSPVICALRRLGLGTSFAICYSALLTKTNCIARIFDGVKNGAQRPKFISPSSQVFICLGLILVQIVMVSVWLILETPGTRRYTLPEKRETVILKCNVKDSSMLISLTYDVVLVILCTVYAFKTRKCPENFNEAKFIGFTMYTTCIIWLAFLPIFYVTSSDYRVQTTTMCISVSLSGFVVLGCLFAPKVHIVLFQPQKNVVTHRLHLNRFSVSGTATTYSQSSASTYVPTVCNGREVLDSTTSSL

Compound	Activity [1] [%]	IC50 [2] [nM]	Ki [2] [nM]	Activity [3] [%]	Activity [4] [%]	Hill coefficient [5]	IC50 [6] [nM]	Activity [7] [%]
NC(C(=O)O)[C@H]1[C@@H](CCC2c3ccccc3Oc3ccccc32)[C@@H]1C(=O)O (stereo not given in full)	91	200	85	103	111	0.92 and 1.09	75	110
NC(C(=O)O)[C@H]1[C@@H](CC2c3ccccc3Oc3ccccc32)[C@@H]1C(=O)O (stereo not given in full)	94	–	2700	101	95	0.93 and 0.78	1300	131
